{"source": "ChEMBL document CHEMBL3886253", "about": "“Imidazolidinones and analogs exhibiting anti-cancer and anti-proliferative activities” (2015)", "key": {"[1]": {"molecular_target": "Macrophage colony-stimulating factor 1 receptor (Homo sapiens, UniProt P07333)", "sequence (P07333 whole entry)": "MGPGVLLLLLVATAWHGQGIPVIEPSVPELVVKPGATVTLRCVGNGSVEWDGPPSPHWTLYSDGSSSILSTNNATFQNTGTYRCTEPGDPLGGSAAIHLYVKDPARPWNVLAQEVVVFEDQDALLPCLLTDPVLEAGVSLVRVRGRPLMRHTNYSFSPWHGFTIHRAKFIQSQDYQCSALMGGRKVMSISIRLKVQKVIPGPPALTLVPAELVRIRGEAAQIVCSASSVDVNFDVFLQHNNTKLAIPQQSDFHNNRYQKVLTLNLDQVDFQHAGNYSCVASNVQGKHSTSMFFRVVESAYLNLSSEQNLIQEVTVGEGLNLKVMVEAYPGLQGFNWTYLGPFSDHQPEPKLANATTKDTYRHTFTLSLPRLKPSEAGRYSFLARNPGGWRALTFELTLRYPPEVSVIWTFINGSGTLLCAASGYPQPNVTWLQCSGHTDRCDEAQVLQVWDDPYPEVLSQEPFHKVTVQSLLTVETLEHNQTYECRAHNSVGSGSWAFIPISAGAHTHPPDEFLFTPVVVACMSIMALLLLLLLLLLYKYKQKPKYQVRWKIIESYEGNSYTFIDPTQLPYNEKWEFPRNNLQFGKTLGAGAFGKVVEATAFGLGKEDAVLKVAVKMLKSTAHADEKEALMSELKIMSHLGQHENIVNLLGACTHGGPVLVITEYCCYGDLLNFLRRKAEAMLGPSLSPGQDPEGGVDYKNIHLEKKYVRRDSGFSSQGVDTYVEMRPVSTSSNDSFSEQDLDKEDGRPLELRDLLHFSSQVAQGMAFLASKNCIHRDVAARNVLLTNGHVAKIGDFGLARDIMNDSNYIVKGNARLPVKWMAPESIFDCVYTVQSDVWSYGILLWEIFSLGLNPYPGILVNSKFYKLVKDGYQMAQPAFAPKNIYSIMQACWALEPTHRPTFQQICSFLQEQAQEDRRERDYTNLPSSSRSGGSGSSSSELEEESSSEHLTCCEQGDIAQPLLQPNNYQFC", "assay": "Enzymatic Assay: Activity of unphosphorylated c-FMS kinase (uFMS, Seq. ID no. 1) was determined by following the production of ADP from the FMS kinase reaction with ATP and poly E4Y as substrates through coupling with the pyruvate kinase/lactate dehydrogenase system (e.g., Schindler et al. Science (2000) 289: 1938-1942). In this assay, the oxidation of NADH (thus the decrease at A340 nm) was continuously monitored spectrophometrically. The reaction mixture (100 µL) contained FMS (purchased from Millipore) (10 nM), polyE4Y (1 mg/mL), MgCl2 (10 mM), pyruvate kinase (4 units), lactate dehydrogenase (0.7 units), phosphoenol pyruvate (1 mM), NADH (0.28 mM) and ATP (500 µM) in 90 mM Tris buffer containing 0.2% octyl-glucoside and 1% DMSO, pH 7.5. The inhibition reaction was started by mixing serial diluted test compound with the above reaction mixture. The absorption at 340 nm was monitored continuously for 4 hours at 30° C. on Synergy 2 plate reader."}, "[2]": {"molecular_target": "Vascular endothelial growth factor receptor 2 (Homo sapiens, UniProt P35968)", "sequence (P35968 whole entry, the tested form may be a part)": "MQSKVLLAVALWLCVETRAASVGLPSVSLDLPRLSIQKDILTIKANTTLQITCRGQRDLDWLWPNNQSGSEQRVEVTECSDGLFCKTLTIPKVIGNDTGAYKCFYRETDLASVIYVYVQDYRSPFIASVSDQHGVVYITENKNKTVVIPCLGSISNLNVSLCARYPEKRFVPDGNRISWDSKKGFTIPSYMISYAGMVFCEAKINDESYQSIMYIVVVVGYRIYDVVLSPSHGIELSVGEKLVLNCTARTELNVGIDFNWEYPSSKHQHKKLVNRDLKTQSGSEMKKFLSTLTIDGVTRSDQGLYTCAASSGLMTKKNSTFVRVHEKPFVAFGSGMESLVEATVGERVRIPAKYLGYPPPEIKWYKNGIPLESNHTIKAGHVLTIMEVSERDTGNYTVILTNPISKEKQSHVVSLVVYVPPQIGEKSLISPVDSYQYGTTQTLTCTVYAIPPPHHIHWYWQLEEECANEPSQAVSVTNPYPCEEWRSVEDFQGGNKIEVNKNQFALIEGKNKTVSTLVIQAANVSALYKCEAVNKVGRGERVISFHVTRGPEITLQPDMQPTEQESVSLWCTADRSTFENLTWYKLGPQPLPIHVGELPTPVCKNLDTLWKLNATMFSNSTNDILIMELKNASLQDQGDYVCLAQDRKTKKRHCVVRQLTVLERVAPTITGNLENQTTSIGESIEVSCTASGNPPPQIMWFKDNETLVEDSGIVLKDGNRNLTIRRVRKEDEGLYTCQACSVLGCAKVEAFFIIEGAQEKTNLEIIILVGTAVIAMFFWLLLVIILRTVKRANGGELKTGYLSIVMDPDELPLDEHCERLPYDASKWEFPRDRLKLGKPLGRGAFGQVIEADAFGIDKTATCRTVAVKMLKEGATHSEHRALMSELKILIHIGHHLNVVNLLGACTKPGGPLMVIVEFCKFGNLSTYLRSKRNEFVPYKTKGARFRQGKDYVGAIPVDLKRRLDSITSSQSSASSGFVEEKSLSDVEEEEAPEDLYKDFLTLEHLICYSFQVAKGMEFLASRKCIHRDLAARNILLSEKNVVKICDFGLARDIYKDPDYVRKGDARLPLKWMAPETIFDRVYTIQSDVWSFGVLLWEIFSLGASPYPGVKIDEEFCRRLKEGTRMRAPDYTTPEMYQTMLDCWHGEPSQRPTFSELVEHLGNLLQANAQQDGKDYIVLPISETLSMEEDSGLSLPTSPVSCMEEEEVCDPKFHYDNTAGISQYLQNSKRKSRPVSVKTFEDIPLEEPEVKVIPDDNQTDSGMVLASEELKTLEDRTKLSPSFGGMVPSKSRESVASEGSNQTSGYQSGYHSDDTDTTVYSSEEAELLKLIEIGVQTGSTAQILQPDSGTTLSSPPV", "assay": "(§1) In Vitro Receptor Tyrosine Kinase Assay: These tests measure the ability of compounds to inhibit the enzymatic activity of recombinant human c-Met/HGF receptor and VEGF receptor enzymatic activity. A 1.3-kb cDNA corresponding to the intracellular domain of c-Met or c-Met IC (Genbank accession number NP000236-1 amino acid 1078 to 1337) is cloned into the BamHI/XhoI sites of the pBlueBacHis2A vector (Invitrogen) for the production of a histidine-tagged version of that enzyme. This construct is used to generate recombinant baculovirus using the Bac-N-Blue¿ system according to the manufacturer's instructions (Invitrogen). The c-Met IC protein is expressed in Hi-5 cells (Trichoplusia Ni) upon infection with recombinant baculovirus construct. Briefly, Hi-5 cells grown in suspension and maintained in serum-free medium (Sf900 II supplemented with gentamycin) at a cell density of about 2x10^6 cells/ml are infected with the above-mentioned viruses at a multiplicity of infection (MOI) of 0.2 during 72 hours at 27 C."}, "[3]": {"molecular_target": "Hepatocyte growth factor receptor (Homo sapiens, UniProt P08581)", "sequence (P08581 whole entry)": "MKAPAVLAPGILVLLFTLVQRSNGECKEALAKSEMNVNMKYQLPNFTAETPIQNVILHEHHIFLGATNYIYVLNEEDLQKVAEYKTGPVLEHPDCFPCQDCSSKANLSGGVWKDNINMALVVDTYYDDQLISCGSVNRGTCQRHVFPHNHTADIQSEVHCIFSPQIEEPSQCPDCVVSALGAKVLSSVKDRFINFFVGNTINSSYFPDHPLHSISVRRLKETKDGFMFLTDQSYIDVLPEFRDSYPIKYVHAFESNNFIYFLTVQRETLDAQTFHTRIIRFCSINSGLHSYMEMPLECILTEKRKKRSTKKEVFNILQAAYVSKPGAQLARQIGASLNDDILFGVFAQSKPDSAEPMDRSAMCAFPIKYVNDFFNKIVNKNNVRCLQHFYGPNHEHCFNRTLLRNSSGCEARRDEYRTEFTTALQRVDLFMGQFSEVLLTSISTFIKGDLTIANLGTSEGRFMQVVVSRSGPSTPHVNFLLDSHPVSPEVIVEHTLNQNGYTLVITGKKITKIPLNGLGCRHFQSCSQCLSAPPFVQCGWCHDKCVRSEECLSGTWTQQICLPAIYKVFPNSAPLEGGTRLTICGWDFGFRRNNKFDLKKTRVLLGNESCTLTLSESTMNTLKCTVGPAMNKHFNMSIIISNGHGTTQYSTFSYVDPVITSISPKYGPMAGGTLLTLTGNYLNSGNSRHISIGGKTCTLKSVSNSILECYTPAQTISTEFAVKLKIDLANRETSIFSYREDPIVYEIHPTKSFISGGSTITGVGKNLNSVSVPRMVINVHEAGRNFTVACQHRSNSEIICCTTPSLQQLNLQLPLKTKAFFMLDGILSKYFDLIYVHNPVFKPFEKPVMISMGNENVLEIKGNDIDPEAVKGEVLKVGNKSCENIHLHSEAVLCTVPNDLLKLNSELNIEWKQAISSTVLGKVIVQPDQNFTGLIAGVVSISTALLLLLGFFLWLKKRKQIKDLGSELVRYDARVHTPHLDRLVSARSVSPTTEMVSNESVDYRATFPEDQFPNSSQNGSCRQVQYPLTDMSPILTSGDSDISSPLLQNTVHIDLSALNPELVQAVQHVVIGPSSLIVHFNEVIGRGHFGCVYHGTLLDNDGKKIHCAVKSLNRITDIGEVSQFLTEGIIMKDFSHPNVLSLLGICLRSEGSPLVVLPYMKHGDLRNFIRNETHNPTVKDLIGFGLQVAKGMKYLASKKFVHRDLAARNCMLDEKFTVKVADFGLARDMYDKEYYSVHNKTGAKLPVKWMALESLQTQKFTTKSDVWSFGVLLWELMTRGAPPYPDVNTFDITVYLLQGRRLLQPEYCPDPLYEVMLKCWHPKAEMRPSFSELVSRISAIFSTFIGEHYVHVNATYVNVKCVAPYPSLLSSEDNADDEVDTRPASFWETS", "assay": "as §1"}}, "data": [{"smiles": "Cn1cc(-c2cc(Oc3ccc(NC(=O)N4CCN(c5ccc(F)cc5)C4=O)nc3)ccn2)cn1", "values": [{"measurement": "IC50", "setting": "[1]", "value": 13, "unit": "nM"}, {"measurement": "IC50", "setting": "[2]", "value": 990, "unit": "nM"}, {"measurement": "IC50", "setting": "[3]", "value": 196, "unit": "nM"}]}]}
